How the values were obtained:
[1] = test system: Human normal epidermal keratinocytes (HaCaT); experiment: Cell viability (Cell Counting Kit-8) of tunicamycin-treated epidermal keratinocytes; assay type: cell-based; conditions: tunicamycin 0.1 µg/mL, 50 µg/mL to 200 µg/mL, 24 hours, effect increased as content increased, Fig. 5
Experimental: Human normal epidermal keratinocytes (HaCaT) were cultured using DMEM containing 10% FBS. The cultured cells were collected by trypsin treatment. The collected cells were seeded in a 96-well plate, and when they reached 100% confluence, tunicamycin, an agent that induces endoplasmic reticulum stress, was added at 0.1 µg/mL, and the cells were cultured for 24 hours. A group was also prepared in which FBS-free DMEM medium containing a test sample (2'-fucosyllactose) at 50 µg/mL, 100 µg/mL, or 200 µg/mL was added simultaneously with tunicamycin, and cultured for 24 hours. After completion of culture, the viability of human normal epidermal keratinocytes was evaluated using Cell Counting Kit-8 (manufactured by Dojindo Laboratories). The measurement wavelength (As) was set to 450 nm, and the reference wavelength was set to 620 nm.
Human normal epidermal keratinocytes were cultured and the absorbance at a measurement wavelength of 450 nm was measured in the same manner as in Example 4-1, except that tunicamycin and the test sample were not added. The obtained absorbance was designated as Ab, and the cell viability represented by the above formula (1) was determined.

[2] = test system: GLS1; experiment: GLS1 expression analysis (ELISA) in HUVEC after high glucose treatment; assay type: cell-based; conditions: human umbilical vein endothelial cells (HUVEC), 50 µg/mL to 1000 µg/mL, 24 hours; effect increased as content increased; Fig. 12
Experimental: Human umbilical vein endothelial cells (HUVEC) were cultured in DMEM + 10% FBS + 5 mM glucose (normal medium). The cultured cells were collected by trypsin treatment. The collected cells were seeded in a 10 cm dish and cultured for 24 hours in a 37°C, 5% CO2 incubator. Thereafter, a treatment of exposing the cells to DMEM + 10% FBS + 30 mM glucose (high glucose medium) for 10 hours and to normal medium for 14 hours was performed for 7 days. After 7 days, normal medium containing the test sample (2'-FL and lactose) at 50 µg/mL, 200 µg/mL, or 1000 µg/mL was added, and cultured for 24 hours in a 37°C, 5% CO2 incubator. The culture supernatant was removed, the cells were washed twice with PBS, and 0.20 mL of RIPA buffer was added to extract total protein. Protein in each protein extract was quantified by the Bradford assay.
Protein extracts were collected in the same manner as in [Example 10-1 B. Human gastric undifferentiated carcinoma cells (KKLS)], [Example 10-1 C. Mouse microglial cells (BV2)], [Example 10-1 D. Human gingival fibroblasts (Gin-1)], and [Example 10-1 E. Human umbilical vein endothelial cells (HUVEC)], respectively, except that a medium same as the above-mentioned medium but not containing the test sample was used instead of the medium containing the test sample, and protein in each protein extract was quantified by the Bradford assay. […]

[3] = test system: type I collagen; experiment: Type I collagen expression analysis (ELISA); assay type: cell-based, Human; conditions: at a concentration of at least 100 µg/mL or more, 48 hours; effect increased from 100 µg/mL to 200 µg/mL; Fig. 9
Experimental: Human normal dermal fibroblasts (NB1RGB) with a PDL of 30 or less were cultured in DMEM (Dulbecco's Modified Eagle Medium, manufactured by Nissui Pharmaceutical Co., Ltd.) containing 10% FBS. The cultured cells were collected by trypsin treatment. The collected cells were seeded in a 96-well plate, and when they reached 100% confluence, FBS-free DMEM containing the test sample (2'-FL and sucrose) at 50 µg/mL, 100 µg/mL, or 200 µg/mL was added, and after culturing for 48 hours in a 37°C, 5% CO2 incubator, the culture supernatant was collected. The culture supernatant was centrifuged, and the resulting supernatant was used as a sample.
The culture supernatant was collected and used as a sample in the same manner as in [Example 8-1], except that FBS-free DMEM not containing the test sample was used instead of FBS-free DMEM containing the test sample.
An Enzyme-Linked Immunosorbent Assay (ELISA) method was performed using an antibody against type I collagen to measure the amount of type I collagen in the samples. […] After stopping the reaction, the absorbance at a measurement wavelength of 450 nm was measured using a microplate reader. […] The relative value of the type I collagen amount when each test sample was added was calculated, with the type I collagen amount in the control set to 1.

[4] = test system: GLS1; experiment: GLS1 expression analysis (ELISA) in KKLS; assay type: cell-based; conditions: human gastric undifferentiated carcinoma cells (KKLS), at least 200 µg/mL or more, 24 hours; effect increased from 200 to 1000 µg/mL; Fig. 12
Experimental: Human gastric undifferentiated carcinoma cells (KKLS) were cultured in RPMI 1640 (manufactured by Nissui Pharmaceutical Co., Ltd.) containing 10% FBS. The cultured cells were collected by trypsin treatment. The collected cells were seeded in a 6-well plate, and when they reached 100% confluence, RPMI 1640 containing the test sample (2'-FL and lactose) at 50 µg/mL, 200 µg/mL, or 1000 µg/mL was added, and cultured for 24 hours in a 37°C, 5% CO2 incubator. The culture supernatant was removed, the cells were washed twice with PBS, and 0.20 mL of RIPA buffer was added to extract total protein. Protein in each protein extract was quantified by the Bradford assay.
Protein extracts were collected in the same manner as in [Example 10-1 B. Human gastric undifferentiated carcinoma cells (KKLS)], [Example 10-1 C. Mouse microglial cells (BV2)], [Example 10-1 D. Human gingival fibroblasts (Gin-1)], and [Example 10-1 E. Human umbilical vein endothelial cells (HUVEC)], respectively, except that a medium same as the above-mentioned medium but not containing the test sample was used instead of the medium containing the test sample, and protein in each protein extract was quantified by the Bradford assay.
An ELISA method was performed using an antibody against GLS1 to measure the amount of GLS1 in the samples. […]

C[C@@H]1O[C@@H](O[C@H]2[C@H](O[C@H]3[C@H](O)[C@@H](O)C(O)O[C@@H]3CO)O[C@H](CO)[C@H](O)[C@@H]2O)[C@@H](O)[C@H](O)[C@@H]1O (stereo partly shown) [2'-FL, 2'-fucosyllactose] was tested, and the “endoplasmic reticulum stress (cell viability)” value [1] was “ameliorated endoplasmic reticulum stress”, the GLS1 expression [2] was “suppressed GLS1 expression” and the “expression level of type I collagen” value [3] was “increased the expression level of type I collagen”. For the same compound, the GLS1 expression [4] was “suppressed GLS1 expression”.

Source: patent EP4670722A1, “PROPHYLACTIC OR AMELIORATING AGENT FOR CELL AGING” (Kyowa Pharma Chemical Co., Ltd., priority 2023, dated 2024)
